Experimental data reported in ChEMBL document CHEMBL5303761, “Data for DCP probe BI-3231” (2023).

What was measured:
[1] = molecular target: 5-hydroxytryptamine receptor 1B (Homo sapiens) (UniProt P28222); assay: 5HT1B(H) Eurofins SafetyScreen44 (BI); details: filed as antagonist, Compound concentration 10.0 uM
[2] = molecular target: T1, 5-hydroxytryptamine receptor 1A (Homo sapiens) (UniProt P08908); assay: 5HT1A/H Eurofins SafetyScreen44 (BI); details: Compound concentration 10.0 uM
T1 sequence (whole entry): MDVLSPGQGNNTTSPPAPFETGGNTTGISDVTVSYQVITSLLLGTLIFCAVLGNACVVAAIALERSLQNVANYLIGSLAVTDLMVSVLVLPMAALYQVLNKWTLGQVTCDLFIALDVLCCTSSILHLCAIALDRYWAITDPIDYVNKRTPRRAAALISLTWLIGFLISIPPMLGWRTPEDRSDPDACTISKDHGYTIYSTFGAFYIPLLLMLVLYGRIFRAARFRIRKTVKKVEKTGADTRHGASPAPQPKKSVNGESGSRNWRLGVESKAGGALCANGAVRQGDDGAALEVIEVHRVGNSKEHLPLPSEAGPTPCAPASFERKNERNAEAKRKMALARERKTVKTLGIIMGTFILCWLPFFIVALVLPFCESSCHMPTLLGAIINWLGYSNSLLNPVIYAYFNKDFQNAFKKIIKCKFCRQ

[3] = molecular target: T2, Alpha-1A adrenergic receptor (Homo sapiens) (UniProt P35348); assay: ALPHA1AH_ANTAG Eurofins SafetyScreen44 (BI); details: filed as antagonist, Compound concentration 10.0 uM
T2 sequence (whole entry): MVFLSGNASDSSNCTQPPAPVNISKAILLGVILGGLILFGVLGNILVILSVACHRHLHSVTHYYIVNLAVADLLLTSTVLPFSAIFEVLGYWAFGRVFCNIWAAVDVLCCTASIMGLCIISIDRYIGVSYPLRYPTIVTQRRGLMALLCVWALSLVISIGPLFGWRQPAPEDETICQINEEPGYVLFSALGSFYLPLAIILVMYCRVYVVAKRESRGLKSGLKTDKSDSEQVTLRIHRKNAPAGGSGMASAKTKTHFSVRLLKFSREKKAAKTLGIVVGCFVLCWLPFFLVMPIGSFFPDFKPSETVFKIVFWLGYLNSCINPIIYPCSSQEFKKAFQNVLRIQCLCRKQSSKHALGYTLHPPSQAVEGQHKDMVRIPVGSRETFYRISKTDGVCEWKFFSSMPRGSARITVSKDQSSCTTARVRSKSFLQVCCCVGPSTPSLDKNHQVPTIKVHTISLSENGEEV

[4] = molecular target: Androgen receptor (Homo sapiens) (UniProt P10275); assay: ANDROGEN/H Eurofins SafetyScreen44 (BI); details: Compound concentration 10.0 uM
[5] = molecular target: Beta-1 adrenergic receptor (Homo sapiens) (UniProt P08588); assay: BETA1/HUM Eurofins SafetyScreen44 (BI); details: Compound concentration 10.0 uM
[6] = molecular target: L-type Ca2+ channel (dihydropyridine site), Cav1.2 alpha-1C (Rattus norvegicus, UniProt P22002); assay: CA+/DHPSI/R Eurofins SafetyScreen44 (BI); details: rat brain, probe [3H](+)PN200-110, compound concentration 10 uM, read-out: % Ctrl
[7] = molecular target: voltage-dependent K+ channel (stored as IKs; KCNQ1/KCNE1) (Rattus norvegicus, UniProt P15383+Q9Z0N7); assay: K+/VOLT/RA Eurofins SafetyScreen44 (BI); type: protein-complex assay; details: rat brain, probe [125I]alpha-dendrotoxin, compound concentration 10 uM, read-out: % Ctrl
[8] = molecular target: Tyrosine-protein kinase Lck (Homo sapiens) (UniProt P06239); assay: LCK_CE Eurofins SafetyScreen44 (BI); details: Compound concentration 10.0 uM
[9] = molecular target: Muscarinic acetylcholine receptor M3 (Homo sapiens) (UniProt P20309); assay: M3/H Eurofins SafetyScreen44 (BI); details: Compound concentration 10.0 uM
[10] = molecular target: cGMP-inhibited 3',5'-cyclic phosphodiesterase 3A (Homo sapiens) (UniProt Q14432); assay: PDE3A Eurofins SafetyScreen44 (BI); details: Compound concentration 10.0 uM
[11] = molecular target: 5-hydroxytryptamine receptor 1D (Homo sapiens) (UniProt P28221); details: Compound concentration 10.0 uM
[12] = molecular target: 5-hydroxytryptamine receptor 2A (Homo sapiens) (UniProt P28223); details: Compound concentration 10.0 uM
[13] = molecular target: 5-hydroxytryptamine receptor 5A (Homo sapiens) (UniProt P47898); details: Compound concentration 10.0 uM
[14] = molecular target: Sodium-dependent dopamine transporter (Homo sapiens) (UniProt Q01959); details: Compound concentration 10.0 uM
[15] = molecular target: Histamine H3 receptor (Homo sapiens) (UniProt Q9Y5N1); details: Compound concentration 10.0 uM
[16] = molecular target: Alpha-1B adrenergic receptor (Homo sapiens) (UniProt P35368); details: Compound concentration 10.0 uM
[17] = molecular target: T3, Alpha-2A adrenergic receptor (Homo sapiens) (UniProt P08913); details: Compound concentration 10.0 uM
T3 sequence (whole entry): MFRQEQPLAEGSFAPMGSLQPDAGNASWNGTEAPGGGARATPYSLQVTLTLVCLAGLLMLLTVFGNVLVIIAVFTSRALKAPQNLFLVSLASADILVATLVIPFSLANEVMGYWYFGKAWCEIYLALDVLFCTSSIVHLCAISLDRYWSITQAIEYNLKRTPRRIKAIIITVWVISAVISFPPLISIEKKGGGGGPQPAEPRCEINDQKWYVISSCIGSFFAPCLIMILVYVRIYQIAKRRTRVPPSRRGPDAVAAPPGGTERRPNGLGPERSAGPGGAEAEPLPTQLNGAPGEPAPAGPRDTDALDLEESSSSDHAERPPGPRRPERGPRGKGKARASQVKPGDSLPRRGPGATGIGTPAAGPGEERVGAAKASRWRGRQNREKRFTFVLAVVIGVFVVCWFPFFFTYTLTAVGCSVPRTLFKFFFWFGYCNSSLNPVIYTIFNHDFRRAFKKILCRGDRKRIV

[18] = molecular target: Alpha-2B adrenergic receptor (Homo sapiens) (UniProt P18089); details: Compound concentration 10.0 uM
[19] = molecular target: Muscarinic acetylcholine receptor M5 (Homo sapiens) (UniProt P08912); details: Compound concentration 10.0 uM
[20] = molecular target: Alpha-1D adrenergic receptor (Homo sapiens) (UniProt P25100); details: Compound concentration 10.0 uM
[21] = molecular target: Sigma non-opioid intracellular receptor 1 (Homo sapiens) (UniProt Q99720); details: Compound concentration 10.0 uM
Chain of Sigma non-opioid intracellular receptor 1 (Homo sapiens) (Q99720 whole entry): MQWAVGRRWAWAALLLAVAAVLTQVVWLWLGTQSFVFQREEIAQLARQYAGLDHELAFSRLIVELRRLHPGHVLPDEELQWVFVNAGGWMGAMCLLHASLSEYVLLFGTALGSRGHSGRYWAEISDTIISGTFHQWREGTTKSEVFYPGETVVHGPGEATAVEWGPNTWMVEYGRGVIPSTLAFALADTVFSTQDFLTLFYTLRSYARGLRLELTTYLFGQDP

Chain of Histamine H3 receptor (Homo sapiens) (Q9Y5N1 whole entry): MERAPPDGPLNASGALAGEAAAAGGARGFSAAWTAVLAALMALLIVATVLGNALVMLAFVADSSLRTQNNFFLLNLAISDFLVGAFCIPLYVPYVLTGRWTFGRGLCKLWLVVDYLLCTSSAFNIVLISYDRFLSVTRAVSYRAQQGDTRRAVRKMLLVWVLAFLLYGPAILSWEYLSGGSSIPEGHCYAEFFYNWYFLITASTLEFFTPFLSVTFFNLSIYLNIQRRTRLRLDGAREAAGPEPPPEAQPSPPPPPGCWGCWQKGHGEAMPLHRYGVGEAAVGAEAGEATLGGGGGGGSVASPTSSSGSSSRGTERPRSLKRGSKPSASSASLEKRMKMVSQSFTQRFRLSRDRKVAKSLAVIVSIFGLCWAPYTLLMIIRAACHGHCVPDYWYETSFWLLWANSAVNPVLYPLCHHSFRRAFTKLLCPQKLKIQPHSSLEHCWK
Chain of 5-hydroxytryptamine receptor 2A (Homo sapiens) (P28223 whole entry): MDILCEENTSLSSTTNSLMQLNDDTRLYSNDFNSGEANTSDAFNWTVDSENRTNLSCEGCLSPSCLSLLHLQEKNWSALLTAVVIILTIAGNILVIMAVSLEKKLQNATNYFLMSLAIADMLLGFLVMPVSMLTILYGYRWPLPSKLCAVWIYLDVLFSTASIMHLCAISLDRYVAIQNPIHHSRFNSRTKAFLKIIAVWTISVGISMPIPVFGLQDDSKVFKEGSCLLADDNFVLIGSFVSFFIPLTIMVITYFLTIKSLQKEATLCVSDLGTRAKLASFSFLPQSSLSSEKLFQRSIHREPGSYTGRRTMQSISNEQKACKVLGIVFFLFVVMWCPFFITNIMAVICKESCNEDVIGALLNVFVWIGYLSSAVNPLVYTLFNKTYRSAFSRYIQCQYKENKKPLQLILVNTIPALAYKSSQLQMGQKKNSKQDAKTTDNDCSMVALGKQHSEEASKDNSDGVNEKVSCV
Chain of Muscarinic acetylcholine receptor M5 (Homo sapiens) (P08912 whole entry): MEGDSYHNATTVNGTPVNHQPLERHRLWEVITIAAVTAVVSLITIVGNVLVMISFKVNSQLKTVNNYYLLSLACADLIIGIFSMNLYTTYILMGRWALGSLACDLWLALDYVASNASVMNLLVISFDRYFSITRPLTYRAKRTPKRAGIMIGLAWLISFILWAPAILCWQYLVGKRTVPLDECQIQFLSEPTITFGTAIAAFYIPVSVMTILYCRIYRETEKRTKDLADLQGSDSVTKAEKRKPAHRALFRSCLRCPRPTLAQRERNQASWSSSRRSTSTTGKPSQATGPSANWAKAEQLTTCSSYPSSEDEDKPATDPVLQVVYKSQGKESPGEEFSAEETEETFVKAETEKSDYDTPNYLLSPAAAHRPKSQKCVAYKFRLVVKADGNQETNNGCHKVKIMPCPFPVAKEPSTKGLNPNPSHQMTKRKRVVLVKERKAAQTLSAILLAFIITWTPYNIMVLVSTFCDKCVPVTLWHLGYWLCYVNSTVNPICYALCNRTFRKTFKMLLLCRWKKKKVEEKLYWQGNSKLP
Chain of Alpha-2B adrenergic receptor (Homo sapiens) (P18089 whole entry): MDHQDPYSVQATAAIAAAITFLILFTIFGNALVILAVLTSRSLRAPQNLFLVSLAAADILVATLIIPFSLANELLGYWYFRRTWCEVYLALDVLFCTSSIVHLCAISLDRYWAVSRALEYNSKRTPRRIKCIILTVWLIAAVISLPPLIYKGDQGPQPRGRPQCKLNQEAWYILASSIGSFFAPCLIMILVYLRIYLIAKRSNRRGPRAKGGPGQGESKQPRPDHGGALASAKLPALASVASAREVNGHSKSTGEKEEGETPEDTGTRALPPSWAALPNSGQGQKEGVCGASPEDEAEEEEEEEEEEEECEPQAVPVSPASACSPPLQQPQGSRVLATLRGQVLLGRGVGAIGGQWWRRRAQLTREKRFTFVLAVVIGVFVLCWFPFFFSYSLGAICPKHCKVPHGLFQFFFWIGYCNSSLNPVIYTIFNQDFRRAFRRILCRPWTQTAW
Chain of Sodium-dependent dopamine transporter (Homo sapiens) (Q01959 whole entry): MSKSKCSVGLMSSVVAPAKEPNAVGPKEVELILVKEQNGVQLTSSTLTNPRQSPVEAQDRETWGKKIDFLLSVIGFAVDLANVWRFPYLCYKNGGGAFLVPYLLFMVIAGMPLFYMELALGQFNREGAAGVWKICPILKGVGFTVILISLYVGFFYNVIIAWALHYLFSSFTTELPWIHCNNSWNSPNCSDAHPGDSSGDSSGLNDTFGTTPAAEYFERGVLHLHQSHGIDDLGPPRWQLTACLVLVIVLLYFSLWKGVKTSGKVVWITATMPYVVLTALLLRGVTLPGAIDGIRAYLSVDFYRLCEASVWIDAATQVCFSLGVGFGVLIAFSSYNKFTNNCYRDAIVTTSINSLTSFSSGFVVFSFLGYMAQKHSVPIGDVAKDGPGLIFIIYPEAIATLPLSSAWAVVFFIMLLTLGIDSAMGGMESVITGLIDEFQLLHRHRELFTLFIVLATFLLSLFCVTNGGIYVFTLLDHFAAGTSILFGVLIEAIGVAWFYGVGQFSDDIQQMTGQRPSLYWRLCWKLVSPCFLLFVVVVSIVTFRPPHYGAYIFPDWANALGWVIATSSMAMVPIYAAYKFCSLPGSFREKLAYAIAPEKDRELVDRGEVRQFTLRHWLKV
Chain of 5-hydroxytryptamine receptor 1D (Homo sapiens) (P28221 whole entry): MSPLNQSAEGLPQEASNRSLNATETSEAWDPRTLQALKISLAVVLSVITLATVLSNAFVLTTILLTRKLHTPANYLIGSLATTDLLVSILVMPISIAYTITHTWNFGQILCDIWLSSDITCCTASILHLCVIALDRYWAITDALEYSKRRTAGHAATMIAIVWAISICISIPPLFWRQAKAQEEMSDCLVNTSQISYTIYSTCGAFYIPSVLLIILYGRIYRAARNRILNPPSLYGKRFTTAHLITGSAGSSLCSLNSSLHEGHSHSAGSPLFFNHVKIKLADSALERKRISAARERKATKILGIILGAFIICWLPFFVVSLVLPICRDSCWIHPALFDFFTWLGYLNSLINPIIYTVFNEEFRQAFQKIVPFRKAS
Chain of Alpha-1D adrenergic receptor (Homo sapiens) (P25100 whole entry): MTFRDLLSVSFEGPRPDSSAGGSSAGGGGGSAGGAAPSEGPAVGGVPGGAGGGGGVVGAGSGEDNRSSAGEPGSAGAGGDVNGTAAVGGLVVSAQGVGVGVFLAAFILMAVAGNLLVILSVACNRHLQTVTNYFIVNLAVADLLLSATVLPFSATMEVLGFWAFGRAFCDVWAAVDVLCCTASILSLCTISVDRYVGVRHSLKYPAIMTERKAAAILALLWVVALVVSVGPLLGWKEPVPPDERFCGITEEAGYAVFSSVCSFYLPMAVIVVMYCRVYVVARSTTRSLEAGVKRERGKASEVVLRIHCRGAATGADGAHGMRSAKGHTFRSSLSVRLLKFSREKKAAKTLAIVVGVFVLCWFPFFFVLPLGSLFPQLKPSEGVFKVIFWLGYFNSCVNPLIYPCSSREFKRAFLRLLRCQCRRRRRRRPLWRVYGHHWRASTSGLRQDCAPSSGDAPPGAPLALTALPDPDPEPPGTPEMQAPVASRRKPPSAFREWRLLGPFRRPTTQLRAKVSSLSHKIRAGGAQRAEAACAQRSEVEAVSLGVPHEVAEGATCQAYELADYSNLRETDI
Chain of Alpha-1B adrenergic receptor (Homo sapiens) (P35368 whole entry): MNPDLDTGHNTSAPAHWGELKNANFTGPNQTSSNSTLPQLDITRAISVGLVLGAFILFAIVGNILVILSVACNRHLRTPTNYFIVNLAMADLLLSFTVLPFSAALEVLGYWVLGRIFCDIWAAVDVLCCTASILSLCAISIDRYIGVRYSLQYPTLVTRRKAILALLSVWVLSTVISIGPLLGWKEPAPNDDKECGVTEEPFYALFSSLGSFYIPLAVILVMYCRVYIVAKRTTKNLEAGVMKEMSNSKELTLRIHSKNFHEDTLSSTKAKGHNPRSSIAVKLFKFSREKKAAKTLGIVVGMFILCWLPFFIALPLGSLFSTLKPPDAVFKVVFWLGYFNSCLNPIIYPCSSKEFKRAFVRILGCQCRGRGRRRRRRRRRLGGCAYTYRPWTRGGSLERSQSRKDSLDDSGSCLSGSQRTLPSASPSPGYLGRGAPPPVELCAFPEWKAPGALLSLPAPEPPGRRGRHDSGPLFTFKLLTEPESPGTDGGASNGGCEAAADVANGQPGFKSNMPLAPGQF
Chain of 5-hydroxytryptamine receptor 5A (Homo sapiens) (P47898 whole entry): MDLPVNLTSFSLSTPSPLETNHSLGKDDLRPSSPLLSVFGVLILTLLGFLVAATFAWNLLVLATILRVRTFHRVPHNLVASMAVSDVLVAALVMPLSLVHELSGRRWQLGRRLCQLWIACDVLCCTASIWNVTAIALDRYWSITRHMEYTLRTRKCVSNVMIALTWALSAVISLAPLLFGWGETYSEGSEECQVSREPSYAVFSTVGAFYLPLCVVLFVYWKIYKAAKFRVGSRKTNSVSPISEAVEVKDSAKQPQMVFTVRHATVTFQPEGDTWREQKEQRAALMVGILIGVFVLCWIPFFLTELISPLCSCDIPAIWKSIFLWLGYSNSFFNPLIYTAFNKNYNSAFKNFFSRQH
Chain of 5-hydroxytryptamine receptor 1B (Homo sapiens) (P28222 whole entry): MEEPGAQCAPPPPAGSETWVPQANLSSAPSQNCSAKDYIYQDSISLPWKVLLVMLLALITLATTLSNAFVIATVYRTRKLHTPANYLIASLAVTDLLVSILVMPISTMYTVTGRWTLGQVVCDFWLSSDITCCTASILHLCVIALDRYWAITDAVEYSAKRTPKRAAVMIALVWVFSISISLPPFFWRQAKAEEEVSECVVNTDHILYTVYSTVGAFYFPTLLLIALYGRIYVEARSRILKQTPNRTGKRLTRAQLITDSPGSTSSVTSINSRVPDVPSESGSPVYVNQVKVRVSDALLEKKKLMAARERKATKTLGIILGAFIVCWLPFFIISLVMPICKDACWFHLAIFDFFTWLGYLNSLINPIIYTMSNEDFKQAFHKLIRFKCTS

Row | inhibition [11] [%] | inhibition [12] [%] | inhibition [13] [%] | inhibition [14] [%] | inhibition [15] [%] | inhibition [16] [%] | inhibition [17] [%] | inhibition [18] [%] | inhibition [19] [%] | inhibition [20] [%] | SMILES | residual activity [1] [%] | residual activity [2] [%] | residual activity [3] [%] | residual activity [4] [%] | residual activity [5] [%] | activity at 10 µM [6] | activity at 10 µM [7] | residual activity [8] [%] | residual activity [9] [%] | residual activity [10] [%] | other results
1 | 15.8 | 3.82 | 8.13 | 12.4 | 11 | -0.13 | 16.4 | 2.49 | 0.59 | 5.29 | CCn1c(=O)c(C)cn(Cc2nnc(-c3ccc(F)c(OC)c3F)s2)c1=O | 103 | 94 | 88 | 103 | 94 | 93% (not active) | 104% (not active) | 110 | 107 | 93 | inhibition [21]: 16.4%
2 | 6.08 | 0.32 | 4.72 | 24.9 | 0.98 | -10 | 4.94 | 5.03 | -6.35 | -1.34 | CCn1c(=O)c(C)cn(Cc2nnc(-c3ccc(F)c(O)c3F)s2)c1=O | 93 | 101 | 107 | 102 | 95 | 84% (not active) | 103% (not active) | 91 | 96 | 94 | inhibition [21]: 17.2%
